# Laboratory results taken from article PMC12639566, “Identification of antimalarial drugs and bradykinin as ligands of the Plasmodium membrane protein PfSR10” (iScience, 2025).
# Peptide text beside a SMILES is read from it.
# Assays:
# PfSR10 [1] = biological target: T1, PfSR10 (Plasmodium falciparum, UniProt Q8I5P8); experiment: FlAsH-BRET assay of PfSR10 extracellular conformational changes; format: cell-based; conditions: for ECL1 movement relative to the PfSR10 N-terminus: concentration-dependent
# Method: To characterize the binding properties of different ligands (CQ, DHA, PIP-TT, PQ, bradykinin or des-Arg9-bradykinin) to PfSR10, a FlAsH BRET assay was performed as previously described.[29]^,[32]^,[49] We seeded HEK293 cells or COS-7 cells in 6-well plate were transfected with PfSR10 FlAsH BRET sensors (S1 to S6 as indicated in Figure 4B) and incubated for 48 h at 37°C in 5% CO2. The overexpressed PfSR10 sensors cells were washed with FlAsH BRET buffer (25 mM HEPES, 1 mM CaCl2, 140 mM NaCl, 2.7 mM KCl, 0.9 mM MgCl2, 0.37 mM NaH2PO4, 5.5 mM D-glucose, 12 mM NaHCO3) and incubated with 2.5 μM FlLAsH EDT2 (pre-diluted in FLAsH BRET buffer) for 40min at 37°C in 5% CO2. The cells were washed twice, resuspended with FlAsH BRET buffer, and seeded into a 96-well plate at a density of 5x10^4 per well. After adding increasing concentrations of ligand (CQ, DHA, PIP-TT, PQ, bradykinin or des-Arg9-bradykinin) together with luciferase substrate coelenterazine-h (5 μM), the BRET signals between Nluc (440-480 nm) and FlAsH fluorescent moiety (525-585 nm) emissions were examined by a Mithras LB 940 Multimode Microplate Reader.
# PfSR10 [2] = biological target: T1, PfSR10; experiment: Gq-Gγ dissociation BRET assay in PfSR10-overexpressing HEK293 cells; format: cell-based
# Text: (§1) To characterize the G protein signalling properties of PfSR10, G protein BRET probes were generated according to previous publication.[50] The Gqo BRET probes were generated by replacing the six amino acids of the C- terminus of Gq -RlucII with those from GoA1, creating a chimeric Gqo-RlucII subunit.[51] HEK293 cells or COS-7 cells were co-transfected with PfSR10 and various G protein probes (Gi, Gq and Gqo). Forty-eight hours post-transfection, cells were washed twice with HBSS, resuspended with HBSS buffer, and seeded into a 96-well plate at a density of 5x10^4 per well. After adding increasing concentrations of ligand (CQ, DHA, PIP-TT, PQ, Bradykinin, des-Arg9-bradykinin, bradykinin-Arg-FITC, FITC-bradykinin) together with luciferase substrate coelenterazine 400a (5 μM, Cayman), the BRET signals between […] (440-480 nm) and GFP2 (510 nm) emissions were examined by a Mithras LB 940 Multimode Microplate Reader (Berthold Technologies). The BRET signal was calculated as the ratio of the GFP2 emission to Nluc emission.
# PfSR10 [3] = biological target: T1, PfSR10; experiment: Gi1-Gγ dissociation BRET assay in PfSR10-overexpressing HEK293 cells; format: cell-based; conditions: G protein dissociation assay
# Text: as §1
# PfSR10 [4] = biological target: T1, PfSR10; experiment: GloSensor-cAMP assay, inhibition of forskolin-induced cAMP in PfSR10-overexpressing HEK293 cells; format: cell-based; conditions: for cAMP inhibition Emax: HEK293 cells overexpressing PfSR10, mean ± SEM
# Method: (§2) To examine the constitutive activity of PfSR10, we transfected HEK293 cells with different concentrations of the receptor, including PfSR10, ADGRG2, ADGRG3. For measuring the anti-malarial drugs, bradykinin or des-Arg9-bradykinin-induced inhibition of forskolin-stimulated cAMP level in HEK293 cells or COS-7 cells, the receptor encoding plasmid (PfSR10 or its mutants) or empty plasmid (pcDNA3.1) was co-transfected with the GloSensor plasmid and incubated in an incubator at 37°C with 5% CO2 for 24 h. The transfected cells were then inoculated on 96-well plates (at a density of 4 × 10^4 / well) and incubated in incubators under the same conditions for another 24 hours. Cells were precultured with serum-free medium (Gibco) containing 5% DILUTED GloSensor™cAMP reagent Reserve solution (Progema) for 2 h. The base cAMP signal was directly measured using a multimode tablet reader (PerkinElmer Envision). At the same time, the cAMP signal induced by DHA, PIP-TT, PQ, CQ bradykinin or des-Arg9-bradykinin was detected after adding agonists into the corresponding Wells. Finally, the s-shaped dose response function in GraphPad Prism 7.0 was used to analyze the data.
# PbSR10 [5] = biological target: T2, PbSR10 (Plasmodium berghei, UniProt A0A509AUP3); experiment: Gi protein trimer dissociation assay in HEK293 cells overexpressing PbSR10; format: cell-based
# PbSR10 [6] = biological target: T2, PbSR10; experiment: GloSensor-cAMP assay in HEK293 cells overexpressing PbSR10; format: cell-based
# PfSR10 mutants = experiment: GloSensor-cAMP assay with site-directed PfSR10 mutants; format: cell-based, Plasmodium falciparum
# Method: as §2
# Plasmodium falciparum [7] = experiment: cAMP ELISA in isolated parasites at trophozoite stage stimulated with Fsk; format: cell-based; conditions: 10 μM DHA, 3 μM Fsk, compared with untreated group
# Method: For determination of the cAMP levels in the Plasmodium falciparum, P. falciparum-infected human erythrocyte s at trophozoite stage, synchronized with sorbitol as previously described.[47] The P. falciparum-infected cells were subject to the 10 μM DHA treatment or not for 1 h after synchronization in the presence of 3 μM of Fsk. P. falciparum parasites were isolated at the trophozoite stage.[48] P. falciparum parasites were washed twice with PBS and resuspended at a concentration of 5×10^6 cells/ml^-1 in the same buffer and incubated for 15 min with 10 μM DHA in the presence 300 nM IBMX to prevent cAMP degradation. After treatment, P. falciparum parasites were disrupted repeatedly by freeze-thaw, sedimented by centrifugation at 600 g for 10 min at 4°C and the supernatant was collected and subjected to cAMP measurement using cAMP ELISA Kit (R&D systems) according to manufacturer’s instructions.
# PcSR10 = PcSR10 (Plasmodium chabaudi, UniProt A0A4V0KCI5); experiment: GloSensor-cAMP assay in HEK293 cells overexpressing PcSR10; format: cell-based
# PySR10 = PySR10 (Plasmodium yoelii, UniProt V7PQD6); experiment: GloSensor-cAMP assay in HEK293 cells overexpressing PySR10; format: cell-based
# Plasmodium falciparum [8] = experiment: IP3 ELISA in isolated parasites at trophozoite stage; format: cell-based; conditions: 10 μM DHA, 1 h, compared with untreated group
# Method: To measure the IP3 levels in the Plasmodium falciparum. P. falciparum parasites were collected as described above. In brief, after 1 h-treatment 1h with 10 μM of DHA, P. falciparum parasites were isolated at the trophozoite stage and washed twice with PBS. Then P. falciparum parasites were disrupted repeatedly by freeze-thaw, sedimented by centrifugation at 600 g for 10 min at 4°C. The supernatant was collected and IP3 levels were determined using IP3 ELISA Kit (Hengyuan Biotechnology, Shanghai) according to manufacturer’s instructions.
# SR10 [9] = experiment: GloSensor-cAMP assay in HEK293 cells overexpressing P. knowlesi SR10; format: cell-based; conditions: one of the two other Plasmodium species
# SR10 [10] = experiment: GloSensor-cAMP assay in HEK293 cells overexpressing P. vivax SR10; format: cell-based; conditions: one of the two other Plasmodium species
# T1 sequence (Q8I5P8 entry or part of it): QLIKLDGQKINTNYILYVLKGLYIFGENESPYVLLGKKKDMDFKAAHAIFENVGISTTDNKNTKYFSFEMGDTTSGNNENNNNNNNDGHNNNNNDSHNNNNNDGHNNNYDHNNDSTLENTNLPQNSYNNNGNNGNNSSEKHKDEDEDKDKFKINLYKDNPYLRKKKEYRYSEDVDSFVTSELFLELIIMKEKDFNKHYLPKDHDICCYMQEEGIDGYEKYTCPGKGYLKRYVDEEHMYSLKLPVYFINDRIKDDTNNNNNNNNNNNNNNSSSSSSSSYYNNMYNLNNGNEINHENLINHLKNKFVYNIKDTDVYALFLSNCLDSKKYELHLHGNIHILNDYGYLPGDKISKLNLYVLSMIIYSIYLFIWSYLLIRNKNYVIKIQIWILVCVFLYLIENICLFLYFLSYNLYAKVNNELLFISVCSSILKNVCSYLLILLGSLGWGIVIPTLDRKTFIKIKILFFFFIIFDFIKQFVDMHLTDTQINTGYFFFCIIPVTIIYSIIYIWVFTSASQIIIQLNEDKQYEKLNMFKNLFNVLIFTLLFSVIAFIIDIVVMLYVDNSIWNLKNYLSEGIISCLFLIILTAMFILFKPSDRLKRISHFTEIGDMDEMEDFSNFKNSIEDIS
# T2 sequence (A0A509AUP3 entry or part of it): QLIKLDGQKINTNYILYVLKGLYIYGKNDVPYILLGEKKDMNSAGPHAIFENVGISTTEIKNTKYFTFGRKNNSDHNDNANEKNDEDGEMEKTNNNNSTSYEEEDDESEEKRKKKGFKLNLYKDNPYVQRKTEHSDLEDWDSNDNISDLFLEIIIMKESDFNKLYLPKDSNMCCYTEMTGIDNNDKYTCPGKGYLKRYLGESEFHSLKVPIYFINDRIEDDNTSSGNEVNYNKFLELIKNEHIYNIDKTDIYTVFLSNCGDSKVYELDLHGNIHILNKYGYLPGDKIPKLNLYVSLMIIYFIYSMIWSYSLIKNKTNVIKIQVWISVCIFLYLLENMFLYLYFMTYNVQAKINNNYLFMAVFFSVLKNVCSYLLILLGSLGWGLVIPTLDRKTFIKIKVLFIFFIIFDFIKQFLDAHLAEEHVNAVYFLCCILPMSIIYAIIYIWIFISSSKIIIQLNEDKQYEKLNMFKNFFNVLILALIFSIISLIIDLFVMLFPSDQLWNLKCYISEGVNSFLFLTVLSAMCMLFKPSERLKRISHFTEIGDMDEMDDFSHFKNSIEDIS
# Sequence of PcSR10 (A0A4V0KCI5 entry or part of it): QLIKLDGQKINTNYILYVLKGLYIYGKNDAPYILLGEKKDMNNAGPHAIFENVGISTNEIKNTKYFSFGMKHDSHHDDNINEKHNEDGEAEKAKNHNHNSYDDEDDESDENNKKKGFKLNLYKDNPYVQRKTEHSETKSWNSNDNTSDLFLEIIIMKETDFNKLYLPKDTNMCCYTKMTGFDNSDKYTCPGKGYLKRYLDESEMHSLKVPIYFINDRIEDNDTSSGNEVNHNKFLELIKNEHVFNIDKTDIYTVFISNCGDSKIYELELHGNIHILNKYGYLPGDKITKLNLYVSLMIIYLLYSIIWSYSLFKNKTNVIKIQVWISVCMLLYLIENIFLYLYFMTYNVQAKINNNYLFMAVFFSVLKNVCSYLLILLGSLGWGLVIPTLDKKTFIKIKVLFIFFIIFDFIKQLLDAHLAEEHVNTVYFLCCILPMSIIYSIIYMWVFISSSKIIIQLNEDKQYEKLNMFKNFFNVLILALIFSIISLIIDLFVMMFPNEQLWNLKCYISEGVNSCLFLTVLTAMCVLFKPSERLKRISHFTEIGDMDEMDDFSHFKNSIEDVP
# Sequence of PySR10 (V7PQD6 entry or part of it): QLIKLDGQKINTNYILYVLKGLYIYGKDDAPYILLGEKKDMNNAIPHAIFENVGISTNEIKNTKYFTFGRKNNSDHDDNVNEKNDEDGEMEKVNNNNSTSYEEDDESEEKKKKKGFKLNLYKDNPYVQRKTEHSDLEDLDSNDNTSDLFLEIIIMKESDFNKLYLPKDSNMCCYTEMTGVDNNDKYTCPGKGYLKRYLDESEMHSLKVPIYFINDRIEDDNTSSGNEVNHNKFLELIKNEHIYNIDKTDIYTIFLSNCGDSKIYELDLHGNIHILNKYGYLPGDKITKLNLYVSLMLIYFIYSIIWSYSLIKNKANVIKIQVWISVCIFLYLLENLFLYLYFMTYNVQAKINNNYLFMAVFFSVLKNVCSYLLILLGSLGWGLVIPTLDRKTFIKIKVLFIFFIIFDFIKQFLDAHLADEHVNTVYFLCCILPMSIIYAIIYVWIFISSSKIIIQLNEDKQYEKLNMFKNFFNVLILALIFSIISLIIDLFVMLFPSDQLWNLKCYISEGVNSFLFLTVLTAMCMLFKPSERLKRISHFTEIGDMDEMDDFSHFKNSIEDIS
compound,measurement,setting,value
"O=C1C(O)=C([C@H]2CC[C@H](c3ccc(Cl)cc3)CC2)C(=O)c2ccccc21 [ATO, atovaquone]",extracellular conformational changes in PfSR10,PfSR10 [1],did not induce detectable extracellular conformational changes
N=C(N)NCCC[C@H](NC(=O)[C@H](Cc1ccccc1)NC(=O)[C@@H]1CCCN1C(=O)[C@H](CO)NC(=O)[C@H](Cc1ccccc1)NC(=O)CNC(=O)[C@@H]1CCCN1C(=O)[C@@H]1CCCN1C(=O)[C@@H](N)CCCNC(=N)N)C(=O)O [bradykinin] (H-RPPGFSPFR-OH),Gq dissociation signal (in words),PfSR10 [2]; PfSR10-overexpressing cells,remarkable reduction
same,ECL movements of PfSR10 by FlAsH-BRET sensors (kinin peptides),PfSR10 [1],movement of ECL1 and ECL3 toward the N-terminus and separation of the ECL2 region and N-terminus of PfSR10
same,Gi1 coupling with PfSR10 (in words),PfSR10 [3],promoted Gi1 coupling to PfSR10
same,Fsk-induced cAMP level elevation (in words),"PfSR10 [4]; PfSR10-overexpressing HEK293 cells, concentration-dependent",significantly inhibited
"COc1cc(NC(C)CCCN)c2ncccc2c1 (centres unmarked) [PQ, primaquine diphosphate]",Gi dissociation downstream of PbSR10,PbSR10 [5],promoted Gi dissociation
same,ECL1 movement relative to the PfSR10 N-terminus,PfSR10 [1],inward movement of ECL1 toward the PfSR10 N-terminus
same,EC50,PfSR10 [4],17.4 ± 4.77 nM
same,cAMP inhibition Emax,PfSR10 [4],1.153 ± 0.06 × 10^3
"C[C@H]1[C@@H](O)O[C@@H]2O[C@@]3(C)CC[C@H]4[C@H](C)CC[C@@H]1[C@@]24OO3 [DHA, dihydroartemisinin]",EC50,PfSR10 [2],2 ± 0.1 nM
same,EC50,PbSR10 [6],12.3 ± 4.75 nM
same,"effect of mutation on DHA potency, PfSR10 C454F",PfSR10 mutants; mutant C454F vs wild type,minimal effects
same,"effect of mutation on DHA-induced cAMP inhibition, PfSR10 L587M",PfSR10 mutants; mutant L587M vs wild type,significantly impaired
same,"effect of mutation on DHA-induced cAMP inhibition, PfSR10 N595S",PfSR10 mutants; mutant N595S vs wild type,significantly impaired
same,"effect of mutation on DHA-induced cAMP inhibition, PfSR10 T513A",PfSR10 mutants; mutant T513A vs wild type,significantly impaired
same,"effect of mutation on DHA potency, PfSR10 T528S",PfSR10 mutants; mutant T528S vs wild type,minimal effects
same,Fsk-stimulated cAMP in the malaria parasite,Plasmodium falciparum [7],inhibited
same,EC50,PcSR10,37.6 ± 15.5 nM
same,Gi dissociation downstream of PbSR10,PbSR10 [5],promoted Gi dissociation
same,ECL1 movement relative to the PfSR10 N-terminus,PfSR10 [1],inward movement of ECL1 toward the PfSR10 N-terminus
same,EC50,PySR10,36.6 ± 6.78 nM
same,EC50,PfSR10 [4],3.94 ± 1.6 nM
same,cAMP inhibition Emax,PfSR10 [4],1.136 ± 0.06 × 10^3
same,IP3 concentration in the malaria parasite,Plasmodium falciparum [8],significantly increased
same,cAMP response via SR10 of P. knowlesi,SR10 [9],no response
same,cAMP response via SR10 of P. vivax,SR10 [10],no response
